Measurements from patent US20230219957A1, “SMALL MOLECULE CB002-ANALOGES RESTORE THE P53 PATHWAY AND TARGET S-PHASE CHECKPOINT” (Brown University, priority 2020, published 2023).

Tests used:
[1] = test system: human SW480 colorectal cancer cells; assay: Tumor xenograft efficacy in NSG mice; format: in vivo; conditions: 50 mg/kg oral gavage three times per week, 5-weeks of treatment
Method: (§1) Drug efficacy using in vivo tumor xenografts. In vivo drug efficacy studies were performed on ten NSG female randomized mice per cohort. The mice had tested negative for any pathogen. Tumor inoculation was induced by subcutaneous injection in the left and right dorsal flank, each with a 150 μL suspension of 1-5×10^6 human colon cancer cells in phosphate-buffered saline with Matrigel (1:1). After tumor size reached 100 mm^3, mice were treated 3×/week with dimethyl sulfoxide vehicle or CB002-analog #4 via oral gavage (22-gauge needle) in a solution of 10% dimethyl sulfoxide, 20% Kolliphor® EL (Sigma cat. no. C5135), and 70% phosphate-buffered saline. Mouse weight and tumor measurements were recorded one-two times per week. Tumor volume was calculated as V=0.5*L*W^2, where L is length and W is the width of the tumor. At the end of the assay, mice were euthanized by CO2. All in vivo procedures were performed according to an approved Institutional Animal Care and Use Committee (IACUC) protocol.

SW480 cells [2] = assay: Propidium iodide Sub-G1 apoptosis analysis; format: cell-based, human; conditions: compared to vehicle control, forty-eight hours
Method: Apoptosis assay. Apoptotic cells were quantified by sub-G1 analysis. Cells were seeded at a density of 2.5×10^5to 5×10^5in a 6-well plate and treated forty-eight to seventy-two hours. After treatment, adherent cells were trypsinized and collected along with floating cells, washed with phosphate-buffered saline, and fixed in 70% ethanol. Cells were then incubated in a phosphate-citric acid buffer (0.2M Na2HPO4+0.1M citric acid, pH 7.8) at room temperature for five minutes, spun down, and resuspended for staining with 50 μg/mL propidium iodide (PI) in the presence of 250 μg/mL pancreatic ribonuclease (RNase A). Sub-G1 analyses were performed using an Epics Elite Epics flow cytometer (Coulter-Beckman).
Propidium iodide and BrdU flow cytometry assay. Cells were seeded at a density of 5×10^5 in a 6-well plate and treated for forty-eight to seventy-two hours. After treatment, floating cells were collected, and adherent cells were trypsinized, pelleted, washed with phosphate-buffered saline, and fixed in 70% ethanol overnight. For propidium iodide (PI) based Sub-G1 apoptosis analysis, cells were spun down after fixation and resuspended in phosphate-citric acid buffer (0.2M Na2HPO4+0.1M Citric Acid, pH 7.8) at room temperature for five minutes. […] Samples were analyzed on an Epics Elite Epics flow cytometer (Coulter-Beckman).

[3] = set-up: species or system mice; conditions: in vivo, po, 50 mg/kg
Method: as §1

SW480 shNoxa cells = assay: Tumor xenograft efficacy in NSG mice, Noxa knockdown; format: in vivo; conditions: compared to vehicle control
Method: Knockdown expression of NOXA by lentivirus infection. A NOXA shRNA plasmid construct was amplified according to the manufacturers recommendation (TRC Lentiviral Human PMAIP1 shRNA, Dharmacon). Plasmid DNA was isolated using the PureLink® HiPure Plasmid Filter Maxiprep Kit (Invitrogen) according to the manufacturers instructions. Lentivirus production was performed by transfecting HEK293T cells at a density of 8×10^6 cells per 10-cm dish with 1.6 μg pMD2.G envelope plasmid, 3.2 μg psPAX2 packaging vector, 3.2 μg plasmid DNA, and 24 μL of Lipofectamine® Transfection reagent 2000 (Life Technologies) in a total volume of the reaction of 1 mL of antibiotic-free DMEM media for 6-10 hours. The media was then replaced with antibiotic-free DMEM. Lentiviral particles were collected between forty-eight to seventy-two hours. SW480 cells ([…] cells per well in a 12-well plate) were infected 1:1 (virus-containing media: antibiotic-free DMEM media, total volume 1 mL) for twenty-four hours. Then, the media was replaced with DMEM complete media for an additional twenty-four hours. […]
Drug efficacy using in vivo tumor xenografts. […] Mouse weight and tumor measurements were recorded one-two times per week. Tumor volume was calculated as V=0.5*L*W^2, where L is length and W is the width of the tumor. […]

SW480 cells [4] = assay: Clonogenic (colony formation) assay; format: cell-based, human; conditions: SW480, versus CB002
Method: Colony formation assay. Cells were seeded in 6-well plates at a density of 500 cells per well. Cells were treated with CB002 small molecules for twenty-four hours. Then, cells were cultured in complete drug-free media for fifteen days. During the fifteen days, the media was changed every two-three days. At the end of the two weeks, the media was removed. Wells were washed twice with Dulbecco's phosphate-buffered saline (PBS). The colonies were fixed and stained with 10% methanol and 0.25% crystal violet (Sigma-Aldrich, St. Louis, Mo., USA) for thirty minutes. Wells were then carefully washed with distilled, deionized water and allowed to dry.

Compound: Cn1c(=O)c2[nH]c(Nc3cccc(C(F)(F)F)c3)nc2n(C)c1=O [CB002-analog #4]
- tumor volume [1]: lower tumor volume than vehicle control
- Sub-G1 content (SW480 cells [2]): significant increase of Sub-G1 content
- tolerability by mouse body weights [3]: well-tolerated
- tumor volume (SW480 shNoxa cells): did not differ in tumor volume
- cytotoxicity by clonogenic assay (SW480 cells [4]): more cytotoxic in vitro than CB002
